Reference: patent publication US6656921B1, “Use of zinc hyaluronate against peptic ulcer” (Richter Gedeon Vegyeszeti Gyar RT., priority 1997, dated 2003)
Marks after values point to notes of the source that are not given here.

Columns and labels:
Format in all cases: in vivo, rat
[1] = test system: acidified ethanol induced gastric lesion; assay: Inhibition of acidified-ethanol induced gastric lesions; conditions: for Inhibition / Lesion length/stomach mm ± S.E.M. / Lesion length/stomach: 30 min before acidified ethanol; for ED50 (dose giving 50% decrease in ulcer index): p.o., 30 min pretreatment
Procedure: Female RG-Wistar rats weighing between 120-150 g were used. Before experiments animals were fasted for 24 hours but received water ad libitum.
Experiments were carried out according to the technique similar to that described by A. Robert [Gastroenterology 77, […] (1979)].
Acidified ethanol (mixture of 50 ml of abs. ethanol and 1 ml of concentrated HCI) was used as strong irritants. Dose of acidified ethanol was 0.5 ml/100 g body weight with intragastric administration. Test compounds were given orally 30 minutes before the acidified ethanol challenge. When the duration of action of test compound was studied test material was administered 60 or 120 minutes earlier to the irritating effect induced by acidified-ethanol effect. One hour after the acidified ethanol treatment rats were sacrificed by cervical dislocation. Stomachs were removed and opened along the greater curvature and mildly washed down. The longitudinal hemorrhagic lesions were assayed by length.
ED50 value was defined as the dose that gave a 50% decrease in ulcer index.

[2] = test system: acidified ethanol induced gastric damage; assay: Effect of L-NAME (endogenous NO) on protection against acidified-ethanol induced gastric damage
Procedure: To study the mechanism of action of the compound to be tested, the involvement of endogenous NO in the development of acidified-ethanol induced gastric damage was also studied by intraperitoneal administration of L-N^G-nitroarginine methyl ester (L-NAME). L-NAME at a dose of 25 mg/kg was injected 15 minutes before the test compound. In subsequent experiments the test compound (p.o.), L-NAME (25 mg/kg i.p.), L-arginine (400 mg/kg i.v.) were administered 30, 45 or 60 minutes before oral administration of acidified-ethanol.
The connection between the cytoprotective effect of zinc hyaluronate and endogenic NO was studied by using an inhibitor of the nitrogen(II) oxide biosynthesis namely, N^G-nitro-L-arginine methyl ester (L-NAME). Considering that zinc hyaluronate(II) and zinc hyaluronate(M) had shown the same activity in acidified ethanol test, the latter was the only one tested in this experiment.

[3] = test system: stress-induced gastric lesion; assay: Inhibition of stress (cold-restraint) induced gastric lesions; conditions: for Lesion score/stomach ± S.E.M.: 30 min before cold-restraint stress, score 0-3; for Inhibition: 30 min before stress; for Protection against cold-restraint induced gastric damage (in words): rat, in vivo
Procedure: Female RG Wistar rats weighing between 120-150 g were used. Before the experiments animals were fasted for 24 hours but received water ad libitum. Experiments were carried out according to the technique similar to that described by Senay et al., (1967). [Proc. Soc. Exp. Biol. Med.124,1221, (1967)].
Test compounds were given orally. 30 minutes later the animals were immobilized in plastic restraint boxes then placed into a refrigerator at 4° C.-8° C. temperature. Four hours later the animals were removed from both the refrigerator and the restraint boxes and one hour later they were sacrificed by cervical dislocation. The stomachs were removed, opened along the greater curvature and hemorrhagic lesions were scored by a zero to 3 scale: stomachs free from any damage were given a score of 0, stomachs with only a few hemorrhagic lesion were given a score of 1, stomachs with more lesion numbers than 10 were given a score of 2, and stomachs with a lot of lesions were characterized with a score of 3.
The ED50 were defined as the dose needed to decrease the score of gastric lesions by 50%.

[4] = test system: indomethacin induced gastric lesion; assay: Inhibition of indomethacin induced gastric lesion; conditions: for Protection of gastric mucosa against indomethacin (in words): rat, in vivo
Procedure: 2. Inhibition of Indomethacin Induced Gastric Lesion Female RG Wistar rats weighing between 120-150 g were used. Before the experiments animals were fasted for 24 hours but received water ad libitum. Test compounds were given orally, 30 minutes later the animals were treated subcutaneously with indomethacin at a dose of 40 mg/kg. Four hours after the irritating indomethacin administration the animals were killed by cervical dislocation. The stomachs were removed, opened along the greater curvature and the hemorrhagic lesions were counted on the glandular stomach.
ED50 value represents the dose which protects the stomach by 50 % from the damaging effect of indomethacin.

[5] = test system: platelet activating factor (PAF) induced gastric lesion; assay: Inhibition of gastric damage induced by platelet activating factor (PAF)
Procedure: Male, RG-Wistar rats weighing between 200-250 g were used. Before the experiments animals were fasted for 24 hours but received water ad libitum. Experiments were carried out according to the technique similar to that described by Wallace and Whittle (1986). [Br.J.Pharmac., 89,415, (1986)]. Animals were anaesthetized by intraperitoneal administration of urethane at a dose of 1 g/kg in a volume of 10 ml/kg. Femoral vein was then prepared and cannulated for administration of ulcerogenic PAF. After the surgery PAF was infused intravenously at a rate of 0.1 ml/min for ten minutes at a dose of 200 ng/kg/min. Test compounds were given 30 minutes before the PAF challenge. One hour after the infusion of PAF animals were sacrificed by cervical dislocation; their stomachs were removed and opened along the greater curvature. The hemorrhagic erosions were evaluated by a zero to three scoring system.

[6] = test system: acetic acid induced chronic gastric ulcer; assay: Inhibition of acetic acid induced chronic gastric ulcer; conditions: for Ulcerated area mm^2 ± S.E.M.: 1.0 mg/kg p.o. once a day, day 5 to 14 after surgery; for Effect on healing of acetic acid induced chronic ulcer (in words): rat, in vivo
Procedure: Female, RG Wistar rats weighing between 120-150 g were used. Before the surgery animals were deprived of food for 24 hours but received water ad libitum. The chronic gastric ulcer was induced by the injection of 25 μl/animal of 20% (v/v) acetic acid into the gastric wall under light ether anaesthesia according to the method similar to that described by Takagi et al. (1969). The oral treatment with the test compounds was started five days after the surgery and continued in a once-a-day regimen up to the 14th day. The animals were killed on the 15th day and their stomachs were dissected. The severity of ulceration was evaluated by the measurement of the diameter of the ulcers and the area affected was calculated. The healing effect was expressed as differences in percentage between the control and test group values.

[7] = test system: gastrointestinal motility; assay: Gastrointestinal motility in the charcoal propulsion test; conditions: 100 mg/kg p.o.; for Propulsion of charcoal suspension mm ± S.E.M.: 30 min before charcoal, 60 min after charcoal
Procedure: Experiments were performed on female, RG-Wistar rats weighing 120-140 g, which were fasted for 24 hours but received water ad libitum.
The experimental procedure was carried out according to the technique similar to that described of P. A. Janssen and A. J. Jageneau [J. Pharm. Pharmacel. 9, 381 (1957)].
Test compounds were given orally at a dose of 100 mg/kg. Control animals received physiological saline solution instead of test compounds. 30 minutes later, the 5% (w/v) charcoal suspension was administered orally at a volume of 0.5 ml/animal. 60 minutes after the charcoal treatment the animals were sacrificed by cervical dislocation. The intestine from pylorus to cecum was removed, its lengths measured along with the distance traversed by the charcoal meal.
Motility was expressed as the ratio of length of charcoal suspension to the length of the whole intestine.

[8] = L-NAME + zinc chloride, 25 + 25 mg/kg
[9] = Vehicle + zinc chloride, 0 + 25 mg/kg
[10] = 25 mg/kg p.o., 30 min before indomethacin
[11] = 100 mg/kg p.o., 30 min before indomethacin
[12] = 100 mg/kg p.o., 30 min before indomethacin 40 mg/kg s.c.
[13] = 1.0 mg/kg p.o., 30 min before indomethacin
[14] = 1.0 mg/kg p.o., 30 min before indomethacin 40 mg/kg s.c.
[15] = 10.0 mg/kg p.o., 30 min before indomethacin
[16] = 10.0 mg/kg p.o., 30 min before indomethacin 40 mg/kg s.c.
[17] = listed as Zink-hyaluronate (III)

Row | Molecule | Protection against cold-restraint induced gastric damage (in words) [3] | Protection of gastric mucosa against indomethacin (in words) [4] | Inhibition ([1]; 50 mg/kg p.o.) | Lesion length/stomach mm ± S.E.M. ([1]; 50 mg/kg p.o.) | Inhibition ([1]; 100 mg/kg p.o.) | Lesion length/stomach mm ± S.E.M. ([1]; 100 mg/kg p.o.) | Inhibition [4, 11] | Lesion number/stomach ± S.E.M. [4, 12] | Inhibition ([1]; 10 mg/kg p.o.) | ED50 (dose giving 50% decrease in ulcer index) [1] | Ulcerated area mm^2 ± S.E.M. [6] | Effect on healing of acetic acid induced chronic ulcer (in words) [6] | Inhibition [4, 13] | Lesion number/stomach ± S.E.M. [4, 14] | Inhibition [4, 15] | Lesion number/stomach ± S.E.M. [4, 16] | other results
1 | [Cl-].[Cl-].[Zn+2] [Zinc chloride, zinc chloride, reference compound] | only slight protective effects | do not provide any effect |  |  |  |  |  |  |  |  |  |  |  |  |  |  | Inhibition ([1]; 3.2 mg/kg p.o.): 43.7%; Lesion length/stomach mm ± S.E.M. ([1]; 3.2 mg/kg p.o.): 29.0 ± 4.0 mm; Inhibition ([1]; 6.4 mg/kg p.o.): 52.0%; Lesion length/stomach mm ± S.E.M. ([1]; 6.4 mg/kg p.o.): 24.7 ± 7.7 mm; Inhibition ([1]; 12.8 mg/kg p.o.): 87.0%; Lesion length/stomach mm ± S.E.M. ([1]; 12.8 mg/kg p.o.): 6.7 ± 1.6 mm; Effect of L-NAME pretreatment on the gastroprotective activity (in words) ([2]; L-NAME 25 mg/kg): not influenced; Inhibition (compared with the vehicle + vehicle group) [2, 8]: 73.2%; Lesion length/stomach mm ± S.E.M. [2, 8]: 19.9 ± 5.5 mm; Inhibition (compared with the vehicle + vehicle group) [2, 9]: 89.2%; Lesion length/stomach mm ± S.E.M. [2, 9]: 8.0 ± 2.6 mm; Lesion score/stomach ± S.E.M. ([3]; 25 mg/kg p.o.): 0.6 ± 0.2; Inhibition ([3]; 25 mg/kg p.o.): 40.0%; Inhibition [4, 10]: 0%; Lesion number/stomach ± S.E.M. [4, 10]: 15.1 ± 3.7
2 | sodium hyaluronate [reference compound] | only slight protective effects | do not provide any effect | 15.6% | 65.7 ± 9.8 mm | 35.9% | 49.9 ± 6.0 mm | 36.2% | 14.6 ± 3.3 |  |  |  |  |  |  |  |  | Inhibition ([1]; 100 mg/kg p.o., listed as sodium hyaluronate): 36%; Lesion score/stomach ± S.E.M. ([3]; 100 mg/kg p.o.): 0.9 ± 0.2; Inhibition ([3]; 100 mg/kg p.o.): 40.0%; Inhibition ([5]; 100 mg/kg p.o., 30 min before PAF): 0%; Lesion score/stomach ± S.E.M. ([5]; 100 mg/kg p.o., 30 min before PAF infusion, score 0-3): 2.6 ± 0.2^a; Protection against ulcerogenic effect of PAF (in words) ([5]; rat, in vivo): did not show such effect
3 | zinc hyaluronate [Zinc hyaluronate (I)] |  |  | 66.7% |  | 93.4% |  | 90.4% | 0.8 ± 0.4 | 35.0% | 15.9 mg/kg | 10.0 ± 2.3 mm^2 | Neither zinc hyaluronate(I), nor zinc hyaluronate(III) had any effect | 43.4% | 4.7 ± 2.1 | 55.4% | 3.7 ± 1.9 | Inhibition ([1]; 1 mg/kg p.o.): 0%; Lesion length/stomach ([1]; 1 mg/kg p.o.): 95.3 ± 14.8; Lesion length/stomach ([1]; 10 mg/kg p.o.): 53.6 ± 7.3; Lesion length/stomach ([1]; 50 mg/kg p.o.): 27.4 ± 7.6; Lesion length/stomach ([1]; 100 mg/kg p.o.): 5.4 ± 2.0; Effect on the intestinal motility (in words) [7]: absence of change in activity; Propulsion of charcoal suspension mm ± S.E.M. ([7]; listed as Zink-hyaluronate (I)): 718 ± 5.6 mm; Ratio of charcoal suspension to the whole intestinal part ([7]; listed as Zink-hyaluronate (I)): 0.79 ± 0.07
4 | zinc hyaluronate [Zinc hyaluronate (III)] |  |  | 78.5% | 14.9 ± 4.5 mm | 85.7% | 9.9 ± 3.5 mm | 83.7% | 3.0 ± 1.4 | 0% | 33.2 mg/kg | 6.8 ± 0.8 mm^2 | Neither zinc hyaluronate(I), nor zinc hyaluronate(III) had any effect | 7.6% | 17.0 ± 4.5 | 57.6% | 7.9 ± 2.5 | Lesion length/stomach mm ± S.E.M. ([1]; 10 mg/kg p.o.): 98.4 ± 12.7 mm; Inhibition ([1]; 25 mg/kg p.o.): 37.0%; Lesion length/stomach mm ± S.E.M. ([1]; 25 mg/kg p.o.): 43.7 ± 7.7 mm; Propulsion of charcoal suspension mm ± S.E.M. [7, 17]: 68 ± 2.5 mm; Ratio of charcoal suspension to the whole intestinal part [7, 17]: 0.89 ± 0.03
